Patent US20110306636A1, “OXAZOLE PYRIDINE DERIVATIVES USEFUL AS S1P1 RECEPTOR AGONISTS” (Merck Serono SA, priority 2009, published 2011)
Where a name gives a salt, the structure may show the parent alone. Read-outs that look alike come from different tables or passages of the source.

How the values were obtained:
[1] = biological target: T1, human S1P1 Receptor fused to the green fluorescent protein (EGFP) (Homo sapiens, UniProt P21453); assay: Internalization of S1P1 in S1P1-U2OS cells by cell imaging analysis; type: cell-based; settings: 1 hour incubation, 384-well
T1 construct: host or cells: U2OS (human bone osteosarcoma epithelial cells), CMV promoter, geneticin selection
T1 sequence (P21453 with tags, fused parts or gaps): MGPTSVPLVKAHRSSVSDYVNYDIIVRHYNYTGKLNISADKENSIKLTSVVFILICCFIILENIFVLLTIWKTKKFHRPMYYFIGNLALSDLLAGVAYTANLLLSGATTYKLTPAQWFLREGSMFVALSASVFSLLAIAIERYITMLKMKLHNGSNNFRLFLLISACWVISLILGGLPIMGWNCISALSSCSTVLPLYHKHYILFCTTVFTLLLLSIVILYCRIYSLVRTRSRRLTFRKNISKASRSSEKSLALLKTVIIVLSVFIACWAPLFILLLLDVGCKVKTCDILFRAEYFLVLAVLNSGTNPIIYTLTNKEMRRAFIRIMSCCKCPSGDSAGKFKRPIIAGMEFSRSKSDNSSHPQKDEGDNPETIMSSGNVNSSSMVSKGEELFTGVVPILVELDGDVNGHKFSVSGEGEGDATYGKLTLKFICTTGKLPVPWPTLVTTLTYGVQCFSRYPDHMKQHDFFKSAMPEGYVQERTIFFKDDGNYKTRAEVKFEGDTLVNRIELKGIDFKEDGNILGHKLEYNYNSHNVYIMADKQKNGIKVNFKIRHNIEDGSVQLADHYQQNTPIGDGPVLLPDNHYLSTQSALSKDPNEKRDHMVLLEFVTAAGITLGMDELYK
Description: Cellular Functional Assays: Internalization of Sphingosine-1-Phosphate Receptor 1 (S1P1) in a Human Cell Line (U2OS) in a 384-Well Format Using a Cell Imaging Analysis.
The S1P1 internalization assay was performed in 384 well plates (Corning® 384 black with clear bottom 3712) using S1P1-U2OS cells from BioImage (C039A), a human epithelial cell line (Human Bone Osteosarcoma Epithelial Cells). These cells expressed the human S1P1 Receptor fused to the green fluorescent protein (EGFP). A standard CMV promoter (cytomegalovirus promoter) controls the expression of S1P1-EGFP and continuous expression was maintained by addition of geneticin to the culture medium.
S1P1 Receptor desensitization induced the internalization of the membrane-localized S1P1-EGFP fusion protein to endosomes, which can be monitored by cell imaging analysis.
The cells are plated in low serum medium (Dulbecco's Modified Eagle Medium (DMEM) with Glutamax-1 and high glucose, 1% Penicillin/Streptomycin, 1% Fetal Calf Serum (FCS), 0.5 mg/ml Geneticin) overnight.
The next day, S1P1-U2OS cells are incubated in 20 μl serum free medium (DMEM with Glutamax-1 and high glucose, 0.1% of fatty-acid free Bovin Serum Albumin (BSA), 10 mM, N′-2-Hydroxyethylpiperazine-N′-2 ethanesulphonic acid (HEPES) 1M) for 2 hours at 37° C./5% CO2.
The cells are then treated with 4 μl compounds/agonists (6×/3% DMSO) for a total volume of 24 μl, and plates are incubated for 1 hour at 37° C./5% CO2.
S1P1-U2OS cells are fixed with 25 μl Paraformaldehyde 8% and stained with Hoechst 33345 dye (1:1000) for 20 minutes.
They were then washed 3 times with Phosphate Buffered Saline (PBS) and plates are sealed.
The internalization of the receptor S1P1-EGFP is measured on Cellomics by calculating the “spot count per object” (“object” corresponds to nuclear and “spot” corresponds to S1P1-EGFP receptor). Internalization data were observed thanks to vHCS View and analyzed using Genedata® software.

S1P1 = S1P1 (Homo sapiens, UniProt P21453); assay: Receptor binding assay, [33P]sphingosine 1-phosphate competition, S1P1
Sequence of S1P1 (P21453 whole entry, species assumed): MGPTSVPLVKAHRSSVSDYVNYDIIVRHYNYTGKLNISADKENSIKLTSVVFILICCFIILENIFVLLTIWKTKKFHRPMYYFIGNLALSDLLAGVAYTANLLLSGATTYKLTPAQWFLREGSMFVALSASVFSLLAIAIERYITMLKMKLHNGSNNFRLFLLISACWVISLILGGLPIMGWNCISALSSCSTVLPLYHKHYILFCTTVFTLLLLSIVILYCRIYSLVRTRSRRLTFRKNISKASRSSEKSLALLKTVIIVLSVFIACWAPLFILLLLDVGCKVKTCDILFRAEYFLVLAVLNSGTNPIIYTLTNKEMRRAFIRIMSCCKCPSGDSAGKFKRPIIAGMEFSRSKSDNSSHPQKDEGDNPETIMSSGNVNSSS
Description: (§1) Membranes Preparation: Membranes were prepared from CHO cells expressing S1P1 or S1P3 for use in ligand and 35S-GTPγS binding studies. Cells were suspended in 50 mM TRIS, pH 7.4, 2 mM EDTA, 250 mM Sucrose (buffer A) and 1× Complete protease inhibitor cocktail (Roche), and disrupted at 4° C. by N2 decompression using a cell disruption bomb (Parr Instrument). Following centrifugation at 1000 RPM for 10 min at 4° C., the supernatant was diluted (2×) in buffer A and centrifuged again at 19000 RPM for 75 min at 4° C. The pellet was then suspended in 10 mM HEPES, pH 7.4, 1 mM EDTA, 250 mM Sucrose (Buffer B), and 1× Complete EDTA-free protease inhibitor cocktail and homogenized using a potter. Membranes were flash frozen in liquid N2 and stored at −80° C.
(§2) Receptor binding assay: [33P]sphingosine 1-phosphate (3000 Ci/mmol; American Radiolabeled Chemicals, Inc.) was added to test compounds in 20% DMSO by competition. Membranes and WGA SPA beads (GE Healthcare) were added to give a final volume of 100 μl in 96-well plates or 50 μl in 384-well plates with assay concentrations of 30 pM or 15 pM [33P]sphingosine 1-phosphate (respectively for S1P1 or S1P3), 50 mM HEPES, pH 7.5, 5 mM MgCl2, 100 mM NaCl, 0.4% fatty acid-free BSA, 1-5 μg/well of proteins in 96-well plates vs 0.6-1 μg/well of proteins in 384-well plates and 100 μg/well of WGA SPA beads in 96-well plates vs 75 μg/well of WGA SPA beads in 384-well plates. Binding was performed for 60 min at RT on a shaker and bound radioactivity was measured on a PerkinElmer 1450 MicroBeta counter. Triplicate samples were averaged and normalized as purcentage of inhibition relative to total binding (only DMSO in well) and non specific binding (1000-fold excess of unlabeled S1P). Binding data were analyzed using the GraphPad Prism program or Genedata software.

S1P3 = S1P3 (Homo sapiens, UniProt Q99500); assay: Receptor binding assay, [33P]sphingosine 1-phosphate competition, S1P3
Sequence of S1P3 (Q99500 whole entry, species assumed): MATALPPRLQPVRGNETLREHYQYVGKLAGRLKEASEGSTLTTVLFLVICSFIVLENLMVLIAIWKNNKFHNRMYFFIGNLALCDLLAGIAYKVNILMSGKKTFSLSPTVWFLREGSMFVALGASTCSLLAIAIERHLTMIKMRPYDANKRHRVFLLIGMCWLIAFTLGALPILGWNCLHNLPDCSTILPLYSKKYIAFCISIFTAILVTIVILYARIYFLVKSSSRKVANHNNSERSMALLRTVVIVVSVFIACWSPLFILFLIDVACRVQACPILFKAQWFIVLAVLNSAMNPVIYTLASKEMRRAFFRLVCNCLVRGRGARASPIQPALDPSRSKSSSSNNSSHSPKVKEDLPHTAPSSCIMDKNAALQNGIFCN
Description: as §1, §2

[2] = 96 well-plate, read-out: S1P1 binding IC50 (M) (96 well-plate)
[3] = 384 well-plate, read-out: S1P1 binding IC50 (M) (384 well-plate)
[4] = 96 well-plate, read-out: S1P3 binding IC50 (M) (96 well-plate)
[5] = 384 well-plate, read-out: S1P3 binding IC50 (M) (384 well-plate)

SMILES	EC50 [1] [nM]	IC50 (S1P1; [2]) [M]	IC50 (S1P1; [3]) [M]	IC50 (S1P3; [4]) [M]	IC50 (S1P3; [5]) [M]
COCc1cc(-c2nc(-c3ccc(CN(C)CC(=O)O)nc3)no2)ccc1-c1ccccc1C [Example 78, 2-(((5-(5-(2-(methoxymethyl)-2′-methylbiphenyl-4-yl)-1,2,4-oxadiazol-3-yl)pyridin-2-yl)methyl)(methyl)amino)acetic acid]	9.48	3.01e-09	3.5e-09	3.04e-06	2.48e-06
Cc1cc(-c2nc(-c3ccc(CN(C)CC(=O)O)nc3)no2)ccc1-c1ccccc1C(F)(F)F [Example 81, 2-(methyl((5-(5-(2-methyl-2′-(trifluoromethyl)biphenyl-4-yl)-1,2,4-oxadiazol-3-yl)pyridin-2-yl)methyl)amino)acetic acid]	170	–	2.5e-08	–	–
Cc1ccccc1-c1ccc(-c2nc(-c3cnc(NCCC(=O)O)c(C)c3)no2)cc1C(F)(F)F [Example 59, N-(3-methyl-5-{5-[2′-methyl-2-(trifluoromethyl)biphenyl-4-yl]-1,2,4-oxadiazol-3-yl}pyridin-2-yl)-beta-alanine, hydrochloride salt]	156	1.04e-08	4.56e-08	2e-05	–
CC1CCCCN1c1ccc(-c2nc(-c3ccnc(CN(C)CC(=O)O)c3)no2)cc1C(F)(F)F (stereo not drawn) [Example 66, 2-(methyl((4-(5-(4-(2-methylpiperidin-1-yl)-3-(trifluoromethyl)phenyl)-1,2,4-oxadiazol-3-yl)pyridin-2-yl)methyl)amino)acetic acid]	14.5	3.3e-09	8.68e-09	7.44e-07	1.38e-06
COCc1cc(-c2nc(-c3cnc(NCCC(=O)O)c(Cl)c3)no2)ccc1-c1cccc(F)c1C [Example 72, N-(3-chloro-5-{5-[3′-fluoro-2-(methoxymethyl)-2′-methylbiphenyl-4-yl]-1,2,4-oxadiazol-3-yl}pyridin-2-yl)-beta-alanine, hydrochloride salt]	23.3	–	8.69e-09	–	3.78e-06
COCc1cc(-c2nc(-c3cnc(N[C@H]4CCC[C@H]4C(=O)O)c(Cl)c3)no2)ccc1-c1ccccc1C (relative stereo) [Example 84, cis-2-(3-chloro-5-(5-(2-(methoxymethyl)-2′-methylbiphenyl-4-yl)-1,2,4-oxadiazol-3-yl)pyridin-2-ylamino)cyclopentanecarboxylic acid]	427	1.35e-08	–	–	–
Cc1ccccc1-c1ccc(-c2nc(-c3ccc(CN(C)CC(=O)O)nc3)no2)cc1C(F)(F)F [Example 74, 2-(methyl((5-(5-(2′-methyl-2-(trifluoromethyl)biphenyl-4-yl)-1,2,4-oxadiazol-3-yl)pyridin-2-yl)methyl)amino)acetic acid]	17.9	–	7.83e-09	–	2.88e-06
COCc1cc(-c2nc(-c3ccc(NCCO)nc3)no2)ccc1-c1ccccc1Cl [Example 49, 2-[(5-{5-[2′-chloro-2-(methoxymethyl)biphenyl-4-yl]-1,2,4-oxadiazol-3-yl}pyridin-2-yl)amino]ethanol]	61.5	3.71e-09	2.4e-08	–	–
Cc1ccccc1-c1ccc(-c2nc(-c3cnc(NCCC(=O)O)c(Cl)c3)no2)cc1C [Example 73, N-{3-chloro-5-[5-(2,2′-dimethylbiphenyl-4-yl)-1,2,4-oxadiazol-3-yl]pyridin-2-yl}-beta-alanine, hydrochloride salt]	173	–	1.47e-08	–	–
COCc1cc(-c2nc(-c3ccc(NCC(C)O)nc3)no2)ccc1-c1ccccc1C (stereo not drawn) [Example 44, 1-[(5-{5-[2-(methoxymethyl)-2′-methylbiphenyl-4-yl]-1,2,4-oxadiazol-3-yl}pyridin-2-yl)amino]propan-2-ol]	56	4.22e-09	3.03e-08	–	–
CC1CCCCN1c1ccc(-c2nc(-c3ccnc(CN(C)CCC(=O)O)c3)no2)cc1C(F)(F)F (stereo not drawn) [Example 67, 3-(methyl((4-(5-(4-(2-methylpiperidin-1-yl)-3-(trifluoromethyl)phenyl)-1,2,4-oxadiazol-3-yl)pyridin-2-yl)methyl)amino)propanoic acid]	14.2	1.2e-09	–	1.41e-07	4.68e-07
COCc1cc(-c2nc(-c3cnc(NCCCO)c(Cl)c3)no2)ccc1-c1ccccc1C [Example 83, 3-(3-chloro-5-(5-(2-(methoxymethyl)-2′-methylbiphenyl-4-yl)-1,2,4-oxadiazol-3-yl)pyridin-2-ylamino)propan-1-ol]	46.7	2.9e-09	–	–	–
Cc1cc(-c2nc(-c3cnc(NCCC(=O)O)c(Cl)c3)no2)ccc1-c1ccccc1C(F)(F)F [Example 70, N-(3-chloro-5-{5-[2-methyl-2′-(trifluoromethyl)biphenyl-4-yl]-1,2,4-oxadiazol-3-yl}pyridin-2-yl)-beta-alanine, hydrochloride salt]	93.4	–	1.72e-08	–	–
COCCCNc1ncc(-c2noc(-c3ccc(-c4ccccc4C)c(COC)c3)n2)cc1Cl [Example 82, 3-chloro-5-(5-(2-(methoxymethyl)-2′-methylbiphenyl-4-yl)-1,2,4-oxadiazol-3-yl)-N-(3-methoxypropyl)pyridin-2-amine]	128	–	4.56e-08	–	–
Cc1ccccc1-c1ccc(-c2nc(-c3cnc(NCCC(=O)O)c(Cl)c3)no2)cc1C(F)(F)F [Example 61, N-(3-chloro-5-{5-[2′-methyl-2-(trifluoromethyl)biphenyl-4-yl]-1,2,4-oxadiazol-3-yl}pyridin-2-yl)-beta-alanine, hydrochloride salt]	198	5.28e-09	9.48e-09	–	–
COCc1cc(-c2nc(-c3ccc(NCCCO)nc3)no2)ccc1-c1ccccc1C [Example 41, 3-[(5-{5-[2-(methoxymethyl)-2′-methylbiphenyl-4-yl]-1,2,4-oxadiazol-3-yl}pyridin-2-yl)amino]propan-1-ol]	84.2	6.72e-09	1.72e-08	–	–
COCc1cc(-c2nc(-c3cnc(NCCO)c(Cl)c3)no2)ccc1-c1ccccc1F [Example 62, 2-[(3-chloro-5-{5-[2′-fluoro-2-(methoxymethyl)biphenyl-4-yl]-1,2,4-oxadiazol-3-yl}pyridin-2-yl)amino]ethanol]	90.8	3.1e-09	7.54e-09	–	–
COCc1cc(-c2nc(-c3ccc(Cl)nc3)no2)ccc1-c1ccccc1C [Example 40, 2-chloro-5-{5-[2-(methoxymethyl)-2′-methylbiphenyl-4-yl]-1,2,4-oxadiazol-3-yl}pyridine]	307	5.49e-08	–	–	–
COCc1cc(-c2nc(-c3cnc(N)c(Cl)c3)no2)ccc1N1CCCCC1C (stereo not drawn) [Example 42, 3-chloro-5-{5-[3-(methoxymethyl)-4-(2-methylpiperidin-1-yl)phenyl]-1,2,4-oxadiazol-3-yl}pyridin-2-amine]	47.9	2.89e-09	–	–	–
Cc1cc(-c2nc(-c3ccnc(CN(C)CC(=O)O)c3)no2)ccc1-c1ccccc1C(F)(F)F [Example 80, 2-(methyl((4-(5-(2-methyl-2′-(trifluoromethyl)biphenyl-4-yl)-1,2,4-oxadiazol-3-yl)pyridin-2-yl)methyl)amino)acetic acid]	93.6	–	2.76e-08	–	–
